Measurements as given in patent US11332459B2 (TEIJIN PHARMA LIMITED, priority 2017, dated 2022).

molecular target: T1, human TRPC6 (Homo sapiens, UniProt Q9Y210); experiment: TRPC6 calcium flux assay (FLIPR, OAG-stimulated calcium influx); type: cell-based; conditions: HEK293 cells stably transfected with human TRPC6, read-out: hTRPC6 Potency
T1 construct: expressed in transfected cells
T1 sequence (Q9Y210 1-931): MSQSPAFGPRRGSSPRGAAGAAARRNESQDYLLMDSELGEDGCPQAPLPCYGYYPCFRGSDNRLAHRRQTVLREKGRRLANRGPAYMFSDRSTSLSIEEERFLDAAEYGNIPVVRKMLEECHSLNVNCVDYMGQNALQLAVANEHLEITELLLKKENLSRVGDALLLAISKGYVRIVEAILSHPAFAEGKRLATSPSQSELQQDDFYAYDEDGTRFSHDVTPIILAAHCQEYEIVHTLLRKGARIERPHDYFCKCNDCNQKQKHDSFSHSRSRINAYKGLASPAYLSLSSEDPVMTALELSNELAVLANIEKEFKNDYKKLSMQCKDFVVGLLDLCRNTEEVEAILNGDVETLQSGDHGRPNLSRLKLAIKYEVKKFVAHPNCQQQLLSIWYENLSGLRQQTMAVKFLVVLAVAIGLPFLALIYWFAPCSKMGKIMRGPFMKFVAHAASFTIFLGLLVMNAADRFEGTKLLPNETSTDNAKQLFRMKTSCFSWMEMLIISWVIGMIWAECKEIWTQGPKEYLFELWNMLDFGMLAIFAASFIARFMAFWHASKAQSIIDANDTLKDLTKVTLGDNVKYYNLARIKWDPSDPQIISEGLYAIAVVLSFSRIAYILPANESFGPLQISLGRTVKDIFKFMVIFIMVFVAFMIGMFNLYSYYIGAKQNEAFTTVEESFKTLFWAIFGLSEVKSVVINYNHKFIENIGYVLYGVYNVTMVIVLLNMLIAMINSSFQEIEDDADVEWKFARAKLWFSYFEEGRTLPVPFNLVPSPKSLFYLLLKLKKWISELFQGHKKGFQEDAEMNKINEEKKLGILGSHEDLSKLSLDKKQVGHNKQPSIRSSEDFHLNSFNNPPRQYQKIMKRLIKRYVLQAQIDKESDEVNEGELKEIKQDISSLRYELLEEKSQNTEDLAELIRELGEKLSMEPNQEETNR
Procedure, shortened: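 IC50 derived by plotting background-corrected peak fluorescence (180 s window, normalized to OAG-triggered signal vs buffer) against dose. Stable human TRPC6 HEK293 line was dye-loaded, exposed to compound 25 min, then challenged with 50 uM final OAG in 2 mM Ca2+ HEPES buffer pH 7.2, 0.5% DMSO.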

Structure (SMILES)	IC50
Cn1ncc2cccc(Cn3c(N4CC[C@@H](F)[C@H](N)C4)nc4cc(F)c(F)cc43)c21 [Example 264, (3R,4R)-1-(5,6-difluoro-1-((1-methyl-1H-indazol-7-yl)methyl)-1H-benzimidazol-2-yl)-4-fluoro-3-piperidinamine]	217 nM
N[C@@H]1CN(c2nc3cc(F)c(F)cc3n2Cc2c(Cl)cccc2Cl)CC[C@H]1F [Example 265, (3R,4R)-1-(1-(2,6-dichlorobenzyl)-5,6-difluoro-1H-benzimidazol-2-yl)-4-fluoro-3-piperidinamine]	2860 nM
CN[C@H]1CCCN(c2nc3ccccc3n2CC(=O)N2CCC2)C1 [Example 266, 1-(1-azetidinyl)-2-(2-((3S)-3-(methylamino)-1-piperidinyl)-1H-benzimidazol-1-yl)ethanone]	15800 nM
C[C@H](c1ccc(C#N)cn1)n1c(N2CC[C@H]3OCCN[C@@H]3C2)nc2c(F)cc(F)cc21 [Example 267, 6-((1R)-1-(4,6-difluoro-2-((4aR,8aR)-hexahydro-2H-pyrido[4,3-b][1,4]oxazin-6(5H)-yl)-1H-benzimidazol-1-yl)ethyl)-3-pyridinecarbonitrile]	> 50000 nM
C[C@H](c1ccc(C#N)cn1)n1c(N2CC[C@@H]3OCCN[C@H]3C2)nc2c(F)cc(F)cc21 [Example 268, 6-((1R)-1-(4,6-difluoro-2-((4aS,8aS)-hexahydro-2H-pyrido[4,3-b][1,4]oxazin-6(5H)-yl)-1H-benzimidazol-1-yl)ethyl)-3-pyridinecarbonitrile]	> 50000 nM
C[C@H](c1ccc(C#N)cn1)n1c(N2CC[C@H]3OCCN[C@@H]3C2)nc2cc(F)cc(F)c21 [Example 271, 6-((1R)-1-(5,7-difluoro-2-((4aR,8aR)-hexahydro-2H-pyrido[4,3-b][1,4]oxazin-6(5H)-yl)-1H-benzimidazol-1-yl)ethyl)-3-pyridinecarbonitrile]	158 nM
CN(C)C(=O)Cn1c(N2CC[C@@H](F)[C@H](N)C2)nc2cc(F)c(F)cc21 [Example 278, 2-(2-((3R,4R)-3-amino-4-fluoro-1-piperidinyl)-5,6-difluoro-1H-benzimidazol-1-yl)-N,N-dimethylacetamide]	737 nM
CCNC(=O)Cn1c(N2CC[C@@H](F)[C@H](N)C2)nc2cc(F)c(F)cc21 [Example 282, 2-(2-((3R,4R)-3-amino-4-fluoro-1-piperidinyl)-5,6-difluoro-1H-benzimidazol-1-yl)-N-ethylacetamide]	150 nM
CN[C@@H]1CN(c2nc3cc(C#N)ccc3n2Cc2ncc(Cl)cn2)CC[C@H]1F [Example 284, 1-((5-chloro-2-pyrimidinyl)methyl)-2-((3R,4R)-4-fluoro-3-(methylamino)-1-piperidinyl)-1H-benzimidazole-5-carbonitrile]	223 nM
N[C@@H]1CN(c2nc3ccc(Cl)cc3n2CC(=O)N2CCC2)CC[C@H]1F [Example 285, 2-(2-((3R,4R)-3-amino-4-fluoro-1-piperidinyl)-6-chloro-1H-benzimidazol-1-yl)-1-(1-azetidinyl)ethanone]	185 nM
N[C@@H]1CN(c2nc3cc(Cl)ccc3n2CC(=O)N2CCC2)CC[C@H]1F [Example 286, 2-(2-((3R,4R)-3-amino-4-fluoro-1-piperidinyl)-5-chloro-1H-benzimidazol-1-yl)-1-(1-azetidinyl)ethanone]	562 nM
N#Cc1ccc2c(c1)nc(N1CC[C@H](F)[C@H](N)C1)n2CC(=O)N1CCC1 [Example 288, 2-((3R,4S)-3-amino-4-fluoro-1-piperidinyl)-1-(2-(1-azetidinyl)-2-oxoethyl)-1H-benzimidazole-5-carbonitrile]	> 3750 nM
N[C@@H]1CN(c2nc3ccc(F)cc3n2Cc2ncc(Cl)cn2)CC[C@H]1F [Example 289, (3R,4R)-1-(1-((5-chloropyrimidin-2-yl)methyl)-6-fluoro-1H-benzo[d]imidazol-2-yl)-4-fluoropiperidin-3-amine]	73.5 nM
N[C@@H]1CN(c2nc3cc(F)ccc3n2Cc2ncc(Cl)cn2)CC[C@H]1F [Example 290, (3R,4R)-1-(1-((5-chloropyrimidin-2-yl)methyl)-5-fluoro-1H-benzo[d]imidazol-2-yl)-4-fluoropiperidin-3-amine]	1970 nM
N#Cc1ccc(Cn2c(N3CCC[C@@H](N)C3)nc3ccccc32)nc1 [Example 291, (R)-6-((2-(3-aminopiperidin-1-yl)-1H-benzo[d]imidazol-1-yl)methyl)nicotinonitrile]	> 3750 nM
N#Cc1ccc(Cn2c(N3CCC[C@@H](N)C3)nc3ccccc32)cn1 [Example 292, (R)-5-((2-(3-aminopiperidin-1-yl)-1H-benzo[d]imidazol-1-yl)methyl)picolinonitrile 2,2,2-trifluoroacetate]	62.5 nM

The next molecules have a lower IC50 than those just listed; values first:

IC50	Structure (SMILES)
2.04 nM	C[C@@H](c1ccc(C#N)cn1)n1c(N2CC[C@@H]3OCCN[C@H]3C2)nc2c(F)cc(F)cc21 [Example 269, 6-((1S)-1-(4,6-difluoro-2-((4aS,8aS)-hexahydro-2H-pyrido[4,3-b][1,4]oxazin-6(5H)-yl)-1H-benzimidazol-1-yl)ethyl)-3-pyridinecarbonitrile]
51.5 nM	C[C@@H](c1ccc(C#N)cn1)n1c(N2CC[C@H]3OCCN[C@@H]3C2)nc2c(F)cc(F)cc21 [Example 270, 6-((1S)-1-(4,6-difluoro-2-((4aR,8aR)-hexahydro-2H-pyrido[4,3-b][1,4]oxazin-6(5H)-yl)-1H-benzimidazol-1-yl)ethyl)-3-pyridinecarbonitrile]
2.81 nM	C[C@H](c1ccc(C#N)cn1)n1c(N2CC[C@@H]3OCCN[C@H]3C2)nc2cc(F)cc(F)c21 [Example 272, 6-((1R)-1-(5,7-difluoro-2-((4aS,8aS)-hexahydro-2H-pyrido[4,3-b][1,4]oxazin-6(5H)-yl)-1H-benzimidazol-1-yl)ethyl)-3-pyridinecarbonitrile]
13.7 nM	C[C@@H](c1ccc(C#N)cn1)n1c(N2CC[C@@H]3OCCN[C@H]3C2)nc2cc(F)cc(F)c21 [Example 273, 6-((1S)-1-(5,7-difluoro-2-((4aS,8aS)-hexahydro-2H-pyrido[4,3-b][1,4]oxazin-6(5H)-yl)-1H-benzimidazol-1-yl)ethyl)-3-pyridinecarbonitrile]
0.328 nM	C[C@@H](c1ccc(C#N)cn1)n1c(N2CC[C@H]3OCCN[C@@H]3C2)nc2cc(F)cc(F)c21 [Example 274, 6-((1S)-1-(5,7-difluoro-2-((4aR,8aR)-hexahydro-2H-pyrido[4,3-b][1,4]oxazin-6(5H)-yl)-1H-benzimidazol-1-yl)ethyl)-3-pyridinecarbonitrile]
0.32 nM	CNC(=O)Cn1c(N2CC[C@@H](F)[C@H](N)C2)nc2cc(F)c(F)cc21 [Example 275, 2-(2-((3R,4R)-3-amino-4-fluoro-1-piperidinyl)-5,6-difluoro-1H-benzimidazol-1-yl)-N-methylacetamide]
42.2 nM	N[C@@H]1CN(c2nc3cc(F)c(F)cc3n2CC(=O)N2CCOCC2)CC[C@H]1F [Example 276, 2-(2-((3R,4R)-3-amino-4-fluoro-1-piperidinyl)-5,6-difluoro-1H-benzimidazol-1-yl)-1-(4-morpholinyl)ethanone]
0.49 nM	N[C@@H]1CN(c2nc3cc(F)c(F)cc3n2CC(=O)N2CCCC2)CC[C@H]1F [Example 277, 2-(2-((3R,4R)-3-amino-4-fluoro-1-piperidinyl)-5,6-difluoro-1H-benzimidazol-1-yl)-1-(1-pyrrolidinyl)ethanone]
7.16 nM	C[C@H](C(=O)N(C)C)n1c(N2CC[C@@H](F)[C@H](N)C2)nc2cc(F)c(F)cc21 [Example 279]
1.47 nM	C[C@@H](C(=O)N(C)C)n1c(N2CC[C@@H](F)[C@H](N)C2)nc2cc(F)c(F)cc21 [Example 280, (2S)-2-(2-((3R,4R)-3-amino-4-fluoro-1-piperidinyl)-5,6-difluoro-1H-benzimidazol-1-yl)-N,N-dimethylpropanamide]
26.9 nM	N[C@@H]1CN(c2nc3cc(F)c(F)cc3n2CC(=O)N2CCCCC2)CC[C@H]1F [Example 281, 2-(2-((3R,4R)-3-amino-4-fluoro-1-piperidinyl)-5,6-difluoro-1H-benzimidazol-1-yl)-1-(1-piperidinyl)ethanone]
23.8 nM	CN[C@@H]1CN(c2nc3ccc(C#N)cc3n2Cc2ncc(Cl)cn2)CC[C@H]1F [Example 283, 1-((5-chloro-2-pyrimidinyl)methyl)-2-((3R,4R)-4-fluoro-3-(methylamino)-1-piperidinyl)-1H-benzimidazole-6-carbonitrile]
10.7 nM	N#Cc1ccc2nc(N3CC[C@H](F)[C@H](N)C3)n(CC(=O)N3CCC3)c2c1 [Example 287, 2-((3R,4S)-3-amino-4-fluoro-1-piperidinyl)-1-(2-(1-azetidinyl)-2-oxoethyl)-1H-benzimidazole-6-carbonitrile]
